IC50 and Ki data for eleven molecules are collected here from patent publication US20250313572A1, “MACROCYCLIC MCL-1 INHIBITORS AND METHODS OF USE” (AbbVie Inc., priority 2017, published 2025).

Like-named read-outs stand apart in the source and are kept apart here.

The subject of assay [1] is AMO-1 human multiple myeloma tumor cell line. The assay can be described thus: AMO-1 cell viability assay (CellTiter-Glo, 24 hours). It counts as cell-based. To be noted: Homo sapiens, AMO1, 24 h, read-out: AMO-1 Viability IC50 (μM, 10% FBS), 10% FBS, 24 hours of compound treatment. For orientation: In ATP-based viability assays light output follows the ATP content of the culture.

Assay [2] deals with GST-MCL-1 (Homo sapiens, UniProt Q07820). Nature of the assay: TR-FRET MCL-1 binding assay (competition with probe F-Bak). The procedure, abridged: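 Test compounds, 11 three-fold dilutions from 25 μM final, incubated 2 hours at room temperature with GST-MCL-1, F-Bak probe and Tb-anti-GST antibody. TR-FRET read at 340/35 nm excitation with 520/525 and 495/510 nm emission. Run without human serum and with 10% HS.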
GST-MCL-1, sequence (Q07820 whole entry): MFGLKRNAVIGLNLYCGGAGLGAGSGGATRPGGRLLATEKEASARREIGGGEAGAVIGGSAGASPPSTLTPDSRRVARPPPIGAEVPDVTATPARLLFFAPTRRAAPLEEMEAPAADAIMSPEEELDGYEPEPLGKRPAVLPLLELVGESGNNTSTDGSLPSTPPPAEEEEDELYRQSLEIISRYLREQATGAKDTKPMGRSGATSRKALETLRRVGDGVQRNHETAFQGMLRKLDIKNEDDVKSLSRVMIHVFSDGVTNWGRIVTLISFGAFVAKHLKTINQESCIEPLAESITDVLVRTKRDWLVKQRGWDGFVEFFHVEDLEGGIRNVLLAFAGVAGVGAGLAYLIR

Assay [3] relates to NCI-H929 human multiple myeloma tumor cell line. The assay can be described thus: NCI-H929 cell viability assay (CellTiter-Glo, 24 hours). Type of assay: cell-based. To be noted: Homo sapiens, NCI-H929, 24 h, read-out: H929 Viability IC50 (μM, 10% FBS), 10% FBS, 24 hours of compound treatment.
Experimental: Each concentration was tested in duplicate at least 3 independent times. A luminescent signal proportional to the number of viable cells following 24 hours of compound treatment was determined using the CellTiter-Glo® Luminescent Cell Viability Assay according to the manufacturer's recommendations (Promega Corp., Madison, WI). The plates were read in a Perkin Elmer Envision using a Luminescence protocol. To generate dose response curves the data is normalized to percent viability by setting the averages of the staurosporine (10 μM) and DMSO only control wells to 0% and 100% viability respectively.
Setting [4] is: MCL-1 Binding Ki (nM, 10% HS), in the presence of 10% HS (human serum).
Where [5] appears, read: without HS, read-out: MCL-1 Binding Ki.

As a reminder, the IC50 is the concentration at which inhibition is half-maximal. Usually Ki stands for a measure of affinity in units of concentration, obtained from inhibition or displacement. For `COCCOCCOCCOc1ccc(-c2nccc(COc3ccc4cc3C[C@H](C(=O)O)Oc3ncnc5sc(C6CCCCC6)c(c35)-c3c(C)c(Cl)c(c(Cl)c3C)O[C@H](CN3CCN(C)CC3)CO4)n2)cc1` [Example 90, (7R,16R)-19,23-dichloro-1-cyclohexyl-10-{[2-(4-{2-[2-(2-methoxyethoxy)ethoxy]ethoxy}phenyl)pyrimidin-4-yl]methoxy}-20,22-dimethyl-16-[(4-methylpiperazin-1-yl)methyl]-7,8,15,16-tetrahydro-18,21-etheno-13,9-(metheno)-6,14,17-trioxa-2-thia-3,5-diazacyclononadeca[1,2,3-cd]indene-7-carboxylic Acid], the IC50 in assay [1] is 0.183 nM; in assay [3] it was 0.787 nM. For the same molecule, the Ki stood at 3.41 nM in assay [2] (setting [4]) and 0.044 nM in assay [2] (setting [5]).
Taken in the same sequence, the figures for `Cc1c(Cl)c2c(Cl)c(C)c1-c1c(-c3ccc(F)cc3)sc3ncnc(c13)O[C@@H](C(=O)O)Cc1cc(ccc1OCc1ccnc(N3CCC(F)(COCCOCC4COCCO4)CC3)n1)OC[C@@H](CN1CCN(C)CC1)O2` (stereo partly drawn) [Example 91, (7R,16R)-19,23-dichloro-10-({2-[4-({2-[(1,4-dioxan-2-yl)methoxy]ethoxy}methyl)-4-fluoropiperidin-1-yl]pyrimidin-4-yl}methoxy)-1-(4-fluorophenyl)-20,22-dimethyl-16-[(4-methylpiperazin-1-yl)methyl]-7,8,15,16-tetrahydro-18,21-etheno-13,9-(metheno)-6,14,17-trioxa-2-thia-3,5-diazacyclononadeca[1,2,3-cd]indene-7-carboxylic Acid] were 0.72 nM, 1.92 nM, 2.1 nM and 0.231 nM.
Taken in the same sequence, the figures for `COCCOCCOCCN(CCOCCOCCOC)c1nccc(COc2ccc3cc2C[C@H](C(=O)O)Oc2ncnc4sc(-c5ccc(F)cc5)c(c24)-c2c(C)c(Cl)c(c(Cl)c2C)O[C@H](CN2CCN(C)CC2)CO3)n1` [Example 93, (7R,16R)-10-{[2-(bis{2-[2-(2-methoxyethoxy)ethoxy]ethyl}amino)pyrimidin-4-yl]methoxy}-19,23-dichloro-1-(4-fluorophenyl)-20,22-dimethyl-16-[(4-methylpiperazin-1-yl)methyl]-7,8,15,16-tetrahydro-18,21-etheno-13,9-(metheno)-6,14,17-trioxa-2-thia-3,5-diazacyclononadeca[1,2,3-cd]indene-7-carboxylic Acid] were 5.53 nM, 4.24 nM, 4.34 nM and 0.748 nM.
Taken in the same sequence, the figures for `COCCOCCOCCOCC1CN(c2nccc(COc3ccc4cc3C[C@H](C(=O)O)Oc3ncnc5sc(-c6ccc(F)cc6)c(c35)-c3c(C)c(Cl)c(c(Cl)c3C)O[C@H](CN3CCN(C)CC3)CO4)n2)C1` [Example 94, (7R,16R)-19,23-dichloro-1-(4-fluorophenyl)-20,22-dimethyl-16-[(4-methylpiperazin-1-yl)methyl]-10-({2-[3-(2,5,8,11-tetraoxadodecan-1-yl)azetidin-1-yl]pyrimidin-4-yl}methoxy)-7,8,15,16-tetrahydro-18,21-etheno-9,13-(metheno)-6,14,17-trioxa-2-thia-3,5-diazacyclononadeca[1,2,3-cd]indene-7-carboxylic Acid] were 2.03 nM, 1.84 nM, 1.08 nM and 0.181 nM.
`COCCOCCOC[C@]1(F)CC[C@@H](c2nccc(COc3ccc4cc3C[C@H](C(=O)O)Oc3ncnc5sc(-c6ccc(F)cc6)c(c35)-c3c(C)c(Cl)c(c(Cl)c3C)O[C@H](CN3CCN(C)CC3)CO4)n2)CC1` [Example 96, (7R,16R)-19,23-dichloro-10-({2-[(1s,4s)-4-fluoro-4-{[2-(2-methoxyethoxy)ethoxy]methyl}cyclohexyl]pyrimidin-4-yl}methoxy)-1-(4-fluorophenyl)-20,22-dimethyl-16-[(4-methylpiperazin-1-yl)methyl]-7,8,15,16-tetrahydro-18,21-etheno-13,9-(metheno)-6,14,17-trioxa-2-thia-3,5-diazacyclononadeca[1,2,3-cd]indene-7-carboxylic Acid]: the half-inhibitory concentration (IC50) in assay [1] was 0.287 nM; in assay [3] it was 0.259 nM. Also, the Ki amounted to 0.037 nM in assay [2] (setting [4]) and 0.003 nM in assay [2] (setting [5]).
The like results for `COCCOCCOCCOc1cccc(COc2ccc3cc2C[C@H](C(=O)O)Oc2ncnc4sc(-c5ccc(F)cc5)c(c24)-c2c(C)c(Cl)c(c(Cl)c2C)O[C@H](CN2CCN(C)CC2)CO3)n1` [Example 99, (7R,16R)-19,23-dichloro-1-(4-fluorophenyl)-10-[(6-{2-[2-(2-methoxyethoxy)ethoxy]ethoxy}pyridin-2-yl)methoxy]-20,22-dimethyl-16-[(4-methylpiperazin-1-yl)methyl]-7,8,15,16-tetrahydro-18,21-etheno-9,13-(metheno)-6,14,17-trioxa-2-thia-3,5-diazacyclononadeca[1,2,3-cd]indene-7-carboxylic Acid] were, in that order, 0.655 nM, 2.69 nM, 6.17 nM and 0.543 nM.
The like results for `Cc1c(Cl)c2c(Cl)c(C)c1-c1c(-c3ccc(F)cc3)sc3ncnc(c13)O[C@@H](C(=O)O)Cc1cc(ccc1OCc1ccnc(C3(COCCOC[C@H]4COCCO4)CCCCC3)n1)OC[C@@H](CN1CCN(C)CC1)O2` [Example 102, (7R,16R)-19,23-dichloro-10-[(2-{1-[(2-{[(2R)-1,4-dioxan-2-yl]methoxy}ethoxy)methyl]cyclohexyl}pyrimidin-4-yl)methoxy]-1-(4-fluorophenyl)-20,22-dimethyl-16-[(4-methylpiperazin-1-yl)methyl]-7,8,15,16-tetrahydro-18,21-etheno-13,9-(metheno)-6,14,17-trioxa-2-thia-3,5-diazacyclononadeca[1,2,3-cd]indene-7-carboxylic Acid] were, in that order, 0.29 nM, 0.835 nM, 3.27 nM and 0.229 nM.
The like results for `Cc1c(Cl)c2c(Cl)c(C)c1-c1c(-c3ccc(F)cc3)sc3ncnc(c13)O[C@@H](C(=O)O)Cc1cc(ccc1OCc1ccnc(N3CCO[C@H](COCCOCC4COCCO4)C3)n1)OC[C@@H](CN1CCN(C)CC1)O2` (stereo partly drawn) [Example 103, (7R,16R)-19,23-dichloro-10-({2-[(2S)-2-({2-[(1,4-dioxan-2-yl)methoxy]ethoxy}methyl)morpholin-4-yl]pyrimidin-4-yl}methoxy)-1-(4-fluorophenyl)-20,22-dimethyl-16-[(4-methylpiperazin-1-yl)methyl]-7,8,15,16-tetrahydro-18,21-etheno-13,9-(metheno)-6,14,17-trioxa-2-thia-3,5-diazacyclononadeca[1,2,3-cd]indene-7-carboxylic Acid] were, in that order, 0.281 nM, 0.578 nM, 0.172 nM and 0.033 nM.
For `COCCOCCOCCOc1cccc(-c2nccc(COc3ccc4cc3C[C@H](C(=O)O)Oc3ncnc5sc(-c6ccc(F)cc6)c(c35)-c3c(C)c(Cl)c(c(Cl)c3C)O[C@H](CN3CCN(C)CC3)CO4)n2)c1` [Example 104, (7R,16R)-19,23-dichloro-1-(4-fluorophenyl)-10-{[2-(3-{2-[2-(2-methoxyethoxy)ethoxy]ethoxy}phenyl)pyrimidin-4-yl]methoxy}-20,22-dimethyl-16-[(4-methylpiperazin-1-yl)methyl]-7,8,15,16-tetrahydro-18,21-etheno-13,9-(metheno)-6,14,17-trioxa-2-thia-3,5-diazacyclononadeca[1,2,3-cd]indene-7-carboxylic Acid], the values for the IC50 in assay [1] and in assay [3] were 0.0488 nM and 0.0557 nM, respectively. Further, the results for the Ki in assay [2] (setting [4]) and in assay [2] (setting [5]) were 0.089 nM and 0.009 nM, respectively.
The like results for `Cc1c(Cl)c2c(Cl)c(C)c1-c1c(-c3ccc(F)cc3)sc3ncnc(c13)O[C@@H](C(=O)O)Cc1cc(ccc1OCc1ccnc(-c3ccc(OCC4COCCOCCOCCOCCO4)cc3)n1)OC[C@@H](CN1CCN(C)CC1)O2` (stereo partly drawn) [Example 107, (7R,16R)-19,23-dichloro-1-(4-fluorophenyl)-20,22-dimethyl-16-[(4-methylpiperazin-1-yl)methyl]-10-[(2-{4-[(1,4,7,10,13-pentaoxacyclopentadecan-2-yl)methoxy]phenyl}pyrimidin-4-yl)methoxy]-7,8,15,16-tetrahydro-18,21-etheno-13,9-(metheno)-6,14,17-trioxa-2-thia-3,5-diazacyclononadeca[1,2,3-cd]indene-7-carboxylic Acid] were, in that order, 1.47 nM, 0.552 nM, 0.412 nM and 0.026 nM.
The like results for `COCCOCCN(CCOCCOC)c1nccc(COc2ccc3cc2C[C@H](C(=O)O)Oc2ncnc4sc(-c5ccc(F)cc5)c(c24)-c2c(C)c(Cl)c(c(Cl)c2C)O[C@H](CN2CCN(C)CC2)CO3)n1` [Example 108, (7R,16R)-10-[(2-{bis[2-(2-methoxyethoxy)ethyl]amino}pyrimidin-4-yl)methoxy]-19,23-dichloro-1-(4-fluorophenyl)-20,22-dimethyl-16-[(4-methylpiperazin-1-yl)methyl]-7,8,15,16-tetrahydro-18,21-etheno-13,9-(metheno)-6,14,17-trioxa-2-thia-3,5-diazacyclononadeca[1,2,3-cd]indene-7-carboxylic Acid] were, in that order, 3.43 nM, 4.17 nM, 6.62 nM and 1.08 nM.
